{"source": "ChEMBL document CHEMBL1221181", "about": "“Virtual and biomolecular screening converge on a selective agonist for GPR30” (Nat Chem Biol, 2006)", "key": {"[1]": {"biological_target": "Estrogen receptor beta (Homo sapiens) (UniProt Q92731)", "sequence (Q92731 whole entry)": "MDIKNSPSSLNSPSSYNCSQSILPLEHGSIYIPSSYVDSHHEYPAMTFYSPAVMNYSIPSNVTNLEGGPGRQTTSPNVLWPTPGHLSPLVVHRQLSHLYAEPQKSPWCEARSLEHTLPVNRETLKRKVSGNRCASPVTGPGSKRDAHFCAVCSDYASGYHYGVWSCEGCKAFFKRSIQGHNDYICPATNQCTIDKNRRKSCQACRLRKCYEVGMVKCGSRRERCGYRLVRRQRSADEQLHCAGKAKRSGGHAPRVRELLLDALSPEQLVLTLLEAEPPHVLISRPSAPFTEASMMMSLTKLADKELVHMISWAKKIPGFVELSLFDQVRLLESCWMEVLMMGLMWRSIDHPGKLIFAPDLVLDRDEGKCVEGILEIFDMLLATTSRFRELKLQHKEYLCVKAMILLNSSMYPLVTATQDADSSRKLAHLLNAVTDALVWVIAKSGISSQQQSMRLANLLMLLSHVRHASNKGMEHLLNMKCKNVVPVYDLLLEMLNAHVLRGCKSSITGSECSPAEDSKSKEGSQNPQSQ", "assay": "Agonist activity at GFP-tagged ERbeta expressed in COS7 cells assessed as PI3K activation at 10 nM by PIP3 nuclear accumulation assay", "type": "functional, cell-based", "details": "COS-7"}, "[2]": {"biological_target": "Estrogen receptor beta (Homo sapiens) (UniProt Q92731)", "assay": "Displacement of E2-Alexa633 from GFP-tagged ERbeta expressed in COS7 cells at 1 uM by FACS", "type": "cell-based", "details": "COS-7"}}, "note": "Activity calls are given as the source filed them. The calls are words filed in the database; no cut-off is given here.", "data": [{"smiles": "CC(=O)c1ccc2c(c1)[C@@H]1C=CC[C@@H]1[C@H](c1cc3c(cc1Br)OCO3)N2", "values": [{"measurement": "Activity", "setting": "[1]", "result": "inactive"}, {"measurement": "Activity", "setting": "[2]", "result": "inactive"}]}]}
